Source: patent US20100210722A1, “COMPOSITION FOR PREVENTING OR TREATING LIPID METABOLIC DISORDERS COMPRISING FUCOXANTHIN OR MARINE PLANT EXTRACT CONTAINING SAME” (AMICOGEN, INC., priority 2007, published 2010)
Marks after values point to notes of the source that are not given here.

Columns and labels:
Format in all cases: in vivo, C57BL/6N/CriBgi mice
β-oxidation = assay: Mitochondrial β-oxidation activity; conditions: mitochondrial fraction, high fat diet, 6 weeks
Source text: (§1) Test diets were as follows: “normal diet group”=AIN-76 semisynthetic diet of Teklad (Madison, Wl, USA); “high fat diet group”=normal diet+10% of corn oil and 10% of lard; “test group I”=high fat diet+fucoxanthin extract of Example 1 (fucoxanthin content=0.05%); “test group II”=high fat diet+fucoxanthin extract of Example 1 (fucoxanthin content=0.2%); “test group III”=high fat diet+fucoxanthin extract of Example 2 (fucoxanthin content=0.05%); “test group IV”=high fat diet+fucoxanthin extract of Example 2 (fucoxanthin content=0.2%). The 6 diets (normal diet, high fat diet, and test I, II, III and IV) were given to the animals for 6 weeks. Diet intake was recorded every day, and body weight was measured once a week.
Mitochondrial β-oxidation activity was measured from the degree of reduction of NAD to NADH using palmitoyl-CoA. Specifically, 10 μL of mitochondrial fraction was added to a reaction solution containing 50 mM Tris-HCl (pH 8.0), 20 mM NAD, 0.33 M DTT, 1.5% BSA (1.5 g/100 mL), 2% Triton X-100 (2 g/100 mL), 10 mM CoA, 1 mM FAD, 100 mM KCN and 5 mM palmitoyl-CoA to initiate reaction. Then, change of absorbance was measured at 37° C. and 340 nm for 5 minutes. β-Oxidation activity was calculated as nmol of NADH produced per 1 mg of mitochondrial protein per minute.

ME mRNA [1] = assay: Expression of mRNA for ME in adipose tissue (real-time PCR); conditions: normal diet = 1.00, GAPDH internal marker
Source text: as §1
5 mL of Trizol was added to 0.5 g of white adipose tissue. After pulverizing in liquid nitrogen using a mortar, the tissue was added to 1 mL of chloroform. […] The isolated RNA was diluted and absorbance was measured at 260 nm using a UV spectrometer. […]
Thus prepared cDNA was […] 10-fold, and primers for analyzing the expression of the respective genes (CPT, β-oxidation, FAS, ME and G6PD) were obtained from Genotech (Daejeon, Korea). […] Fluorescence signals were monitored for each cycle and threshold cycle (Cr) was analyzed for quantitative analysis of mRNA for the test groups (Applied Biosystems, SDS7000) (Livak, 2001). […]

[2] = Triglyceride and cholesterol level in plasma; conditions: high fat diet, 6 weeks, fasted 12 hours
Protocol: Seventy (70) 4-week-old male C57BL/6N/CriBgi mice weighing 14 g were purchased from Orient, and reared in separate cages maintained at 24° C. and relative humidity of 55%, providing light from 08:00 until 20:00. The mice were accustomed while providing a pellet type diet for a week. The mice, which weighed 18.5-18.7 g, were grouped into seven groups by the randomized block design. Each group was given a different diet, as follows.
as §1
The mice fed with the test diets for 6 weeks of Reference Example 1 were fasted for 12 hours. The mice were anesthetized first by ether inhalation, and then by intramuscular injection of ketamine-HCl (Yuhan). […] Plasma was separated by carrying out centrifuge at 3,000 rpm for 15 minutes. The separated plasma was stored at −70° C.

ME mRNA [3] = assay: Expression of mRNA for ME in liver tissue (real-time PCR)
malic enzyme (ME) [4] = assay: ME activity in adipose tissue; conditions: high fat diet, 6 weeks
Source text: as §1
(§2) The supernatant was centrifuged again at 12,000×g for 15 minutes. Then, the supernatant was subjected to high-speed centrifuging (Beckman, Optima TLX-120, USA) at 100,000×g for 1 hour. Then, change of the activity of enzymes involved in the synthesis of fatty acid—fatty acid synthase (FAS), glucose-6-phosphate dehydrogenase (G6PD) and malic enzyme (ME)—was measured.
(§3) The ME enzyme is also an enzyme that supplied reducing energy required for the synthesis of fatty acid. […] ME activity was determined as follows. […] After 2 minutes of reaction at 27° C., absorbance was measured at 340 nm. ME activity was calculated as nmol of NADPH produced per 1 mg of protein in cell per minute.

[5] = system: peroxisome proliferator-activated receptor α (PPARα) mRNA; assay: Expression of mRNA for PPARα in liver tissue (real-time PCR)
malic enzyme (ME) [6] = assay: ME activity in liver tissue; conditions: high fat diet, 6 weeks
Source text: as §1, §2, §3

[7] = fucoxanthin content 0.05% (Test I/III)
[8] = fucoxanthin content 0.2% (Test II/IV)
[9] = normal diet = 1.00, fucoxanthin content 0.05% (Test I/III)
[10] = normal diet = 1.00, fucoxanthin content 0.2% (Test II/IV)

CC(=O)O[C@H]1CC(C)(C)C(=C=C/C(C)=C/C=C/C(C)=C/C=C/C=C(C)/C=C/C=C(\C)C(=O)C[C@@]23O[C@]2(C)C[C@@H](O)CC3(C)C)[C@](C)(O)C1 [highly pure fucoxanthin, Fucoxanthin]
β-Oxidation activity (β-oxidation; [7]): 9.46 ± 2.56^bc mmol/min/mg protein | β-Oxidation activity (β-oxidation; [8]): 13.28 ± 3.79^c mmol/min/mg protein | Expression of mRNA, ME (ME mRNA [1]; [7]): 0.70 ± 0.07^ab | Expression of mRNA, ME (ME mRNA [1]; [8]): 0.52 ± 0.06^a | Cholesterol level in plasma [2, 7]: 2.35 ± 0.22^a mmol/L | Triglyceride level in plasma [2, 7]: 1.15 ± 0.07^b mmol/L | Cholesterol level in plasma [2, 8]: 2.35 ± 0.11^b mmol/L | Triglyceride level in plasma [2, 8]: 1.24 ± 0.07^b mmol/L | Expression of mRNA, ME (ME mRNA [3]; [9]): 0.84 ± 0.08^bc | Expression of mRNA, ME (ME mRNA [3]; [10]): 0.53 ± 0.03^a | ME activity (malic enzyme (ME) [4]; [7]): 0.92 ± 0.14^a mmol/min/mg protein | ME activity (malic enzyme (ME) [4]; [8]): 0.94 ± 0.11^a mmol/min/mg protein | Expression of mRNA, PPARα [5, 9]: 1.22 ± 0.08^ab | Expression of mRNA, PPARα [5, 10]: 1.57 ± 0.36^b | ME activity (malic enzyme (ME) [6]; [7]): 77.06 ± 7.08^a mmol/min/mg protein | ME activity (malic enzyme (ME) [6]; [8]): 73.91 ± 6.37^a mmol/min/mg protein
